From patent US6911531B2, “Antibodies directed towards a novel human EP prostaglandin receptor” (Allergan, Inc., priority 1994, dated 2005)

What was measured:
human HP4 receptor [1] = target: T1, human HP4 receptor (Homo sapiens, UniProt P43116); experiment: Competition of [3H]-PGE2 binding to membranes of HP4-transfected COS-7 cells; settings: [3H]-PGE2 5 nM, 100 μg protein/tube, 60 minutes at room temperature; FIG. 1A-1C
T1 construct: a plasmid with a complete open reading frame in the sense orientation was isolated; expressed in transfected cells; host or cells: COS-7 cells (ATCC CRL 1651), transient DEAE-dextran transfection with pBC/HP4
Description: (§1) Monolayers of COS-7 cells (ATCC CRL 1651; 70-80% confluent) were rinsed with Phosphate Buffered Saline (PBS, Ca/Mg-free) in 150×25 mm culture dishes. Ten ml transfection mix, consisting of 5 μ/ml plasmid DNA and 0.5 mg/ml DEAE-dextran in PBS, was added to each dish and cells were incubated for 30 min at 37° C. Nine ml of the solution was removed from each dish followed by the addition of 10 ml of […] chloroquine in Dulbecco's Modified Eagle Medium (DMEM)/5% fetal bovine serum (FBS). The cells were incubated for 2.5 hr at 37° C., the solution aspirated and 10 ml of 10% dimethyl sulfoxide (DMSO) in DMEM/5% FBS was added. After a 2.5 minute incubation at 37° C., the solution was aspirated and 30 ml DMEM/5% FBS was added. The cells were incubated at 37° C. with media changes at 24 and 48 hours. After 72 hours, the media was aspirated and the cells were scraped into cold TME buffer (50 mM Tris-HCl, pH 7.4, 10 mM MgCl2, 1 mM EDTA). The dishes were rinsed with cold TME buffer and the cells combined and placed on ice.
Transfected COS-7 cells were homogenized for 30 seconds at approximately 80% power with a Brinkman PT 10/35 Polytron homogenizer. The resulting homogenate was centrifuged at 19,000 rpm for 20 minutes at 4° C. using a Sorvall SS-34 rotor. The membrane pellet was resuspended in cold TME buffer (1 ml per original dish), frozen in liquid nitrogen and stored at −80° C.
Membrane pellets were then diluted in ice-cold 50 mM Tris-HCl buffer at pH 7.4 using a sonicator set at 50 watts. Membrane suspensions (100 μl) were then added to each assay tube to start the binding reaction. Final concentrations of the competition assay were as follows: [^3H]-PGE2, 5 nM; 100 μg protein/tube in a total volume of 200 μl. Increasing concentrations of compounds to be tested for competitively inhibiting binding were incubated for 60 minutes at room temperature. Contents were aspirated onto a presoaked ice-cold Whatman GF/B filter using a Brandel Cell Harvester and washed three times with ice-cold assay buffer. The filters were dried, placed in scintillation fluid and counted.

human HP4 receptor [2] = target: T1, human HP4 receptor; experiment: cAMP assay on HP4-transfected COS-7 cells; format: cell-based; settings: FIG. 2
Description: as §1
HP4-transfected COS-7 cells, prepared as described in Example 2, were cultured in DMEM containing 10% FCS, 100 units/ml penicillin, 100 μ/ml streptomycin. […] Cells were trypsinized and resuspended in a small volume of medium (2-3 ml), counted using a hemocytometer and diluted to 7-8×10^4 cells/ml (DMEM/5% FCS). […] The amount of cAMP was quantified as follows. […]

human neutrophils = settings: Nials et al., 1993; cited from earlier work
human myometrium = settings: Yeardley et al., 1992; cited from earlier work
[3] = Nials et al., 1993; cited from earlier work
putative EP2 receptor = settings: cloned receptor of An et al. 1993 / Honda et al. 1993; cited from earlier work

T1 sequence (P43116 whole entry): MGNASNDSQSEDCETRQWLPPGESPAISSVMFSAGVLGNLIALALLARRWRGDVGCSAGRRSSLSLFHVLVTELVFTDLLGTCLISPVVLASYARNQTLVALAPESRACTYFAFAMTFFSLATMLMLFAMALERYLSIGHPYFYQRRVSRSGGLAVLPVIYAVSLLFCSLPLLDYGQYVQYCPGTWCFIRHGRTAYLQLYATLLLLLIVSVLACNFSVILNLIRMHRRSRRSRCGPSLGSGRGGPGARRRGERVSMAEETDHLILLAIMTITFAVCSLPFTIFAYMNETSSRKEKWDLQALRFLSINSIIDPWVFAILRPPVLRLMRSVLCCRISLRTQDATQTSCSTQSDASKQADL

With `CCCCC[C@H](O)/C=C/[C@H]1CCC(=O)[C@@H]1CCCCCCC(=O)O` [11-deoxy PGE1] as the compound, how does the “competition of [3H]-PGE2 binding” value (human HP4 receptor [1]) read?
Its value is “exhibited competitive activity”.

Which “competition of [3H]-PGE2 binding” value (human HP4 receptor [1]) does the source give for `CCCCC[C@H](O)/C=C/[C@H]1[C@H](O)CC(=O)[C@@H]1CCCCCCCO` [PGE1-1-OH] here?
Its value is “only slightly active”.

Which “competition of [3H]-PGE2 binding” value (human HP4 receptor [1]) does the source give for `CCCCC[C@H](O)/C=C/[C@H]1[C@H](O)CC(=O)[C@@H]1C/C=C\CCCC(=O)O` [PGE2, Prostaglandin E2] here?
Its value is “strongest competitors”.

And the cAMP levels (human HP4 receptor [2]; IBMX, 3 minutes at 37° C.)?
The cAMP levels was “significantly increased”.

What about the “potency order of stimulation of cAMP formation” value (human HP4 receptor [2]; order PGE2, AH13205, butaprost, PGE1-1-OH) of the same compound?
The value was “potently stimulate cAMP formation”.

With `CCCCCC(O)c1ccc(C2CCC(=O)C2CCCCCCC(=O)O)cc1` (stereo not shown) [AH13205] as the compound, how does the “release of the inflammatory mediator leukotriene B4” value (human neutrophils) read?
The value was “inhibit”.

What about the “spontaneous contraction of human myometrium” value (human myometrium) of the same compound?
Its value is “inhibits”.

What about the “competition of [3H]-PGE2 binding” value (human HP4 receptor [1]) of the same compound?
The value was “displaced”.

What about the bronchodilation [3] of the same compound?
The bronchodilation was “induce bronchodilation”.

For `O=C(O)CCCCCC[C@H]1C(=O)CC[C@@H]1/C=C/[C@@H](O)COc1ccccc1` [MB 28767], which “competition of [3H]-PGE2 binding” value (human HP4 receptor [1]) is on record?
Its value is “only slightly active”.

Which “competition of [3H]-PGE2 binding” value (human HP4 receptor [1]) does the source give for `CCCCC[C@H](O)/C=C/[C@H]1[C@H](O)CC(=O)[C@@H]1CCCCCCC(=O)O` [PGE1] here?
Its value is “strongest competitors”.

With `CS(=O)(=O)NC(=O)CCC/C=C\C[C@H]1C(=O)C[C@@H](O)[C@@H]1/C=C/[C@@H](O)COc1ccccc1` [Sulprostone] as the compound, how does the “competition of [3H]-PGE2 binding” value (human HP4 receptor [1]) read?
Its value is “inactive”.

With `CCCCC(C)(C)[C@H](O)/C=C/[C@H]1[C@H](O)CC(=O)[C@@H]1C/C=C\CCCC(=O)O` [16,16-dimethyl PGE2] as the compound, how does the “competition of [3H]-PGE2 binding” value (human HP4 receptor [1]) read?
Its value is “active”.

With `C[C@@H](O)CCC[C@H](O)/C=C/[C@H]1[C@H](O)CC(=O)[C@@H]1C/C=C\CCCC(=O)O` [19(R)-hydroxy PGE2] as the compound, how does the “competition of [3H]-PGE2 binding” value (human HP4 receptor [1]) read?
Its value is “exhibited competitive activity”.

Which “competition of [3H]-PGE2 binding” value (human HP4 receptor [1]) does the source give for `CCCC1([C@H](O)C/C=C/[C@H]2[C@H](O)CC(=O)[C@@H]2CCCCCCC(=O)OC)CCC1` [butaprost] here?
The value was “displaced”.

And the “activity at the putative EP2 receptor clone” value (putative EP2 receptor)?
Its value is “inactive”.
